Key:
Type in all cases: organism-based
[1] = molecular target: T1, D(1A) dopamine receptor (Rattus norvegicus, UniProt P18901); test: In vivo inhibitory activity against dopamine (D1) receptor in rat caudate-putamen tissue
[2] = molecular target: T2, D(2) dopamine receptor (Rattus norvegicus, UniProt P61169); test: In vivo inhibitory activity against dopamine (D2) receptor in rat caudate-putamen tissue
[3] = molecular target: T2, D(2) dopamine receptor; test: In vivo binding affinity against dopamine (D2) receptor in rat caudate-putamen tissue using [3H]nemonapride as radioligand
[4] = molecular target: T1, D(1A) dopamine receptor; test: In vivo binding affinity against dopamine (D1) receptor in rat caudate-putamen tissue using [3H]SCH-23390 as radioligand

T1 sequence (P18901 whole entry): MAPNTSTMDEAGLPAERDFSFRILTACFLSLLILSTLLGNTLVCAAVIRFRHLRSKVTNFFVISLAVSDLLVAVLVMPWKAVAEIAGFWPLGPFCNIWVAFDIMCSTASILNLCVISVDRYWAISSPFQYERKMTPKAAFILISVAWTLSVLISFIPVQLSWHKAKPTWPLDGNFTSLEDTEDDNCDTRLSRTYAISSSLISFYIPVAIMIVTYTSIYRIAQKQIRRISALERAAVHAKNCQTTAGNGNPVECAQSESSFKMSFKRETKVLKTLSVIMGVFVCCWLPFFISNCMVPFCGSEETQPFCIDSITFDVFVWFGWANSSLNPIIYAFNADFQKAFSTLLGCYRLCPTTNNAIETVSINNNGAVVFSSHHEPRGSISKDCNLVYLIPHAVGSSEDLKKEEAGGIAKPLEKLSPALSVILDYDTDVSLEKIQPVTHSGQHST
T2 sequence (P61169 whole entry): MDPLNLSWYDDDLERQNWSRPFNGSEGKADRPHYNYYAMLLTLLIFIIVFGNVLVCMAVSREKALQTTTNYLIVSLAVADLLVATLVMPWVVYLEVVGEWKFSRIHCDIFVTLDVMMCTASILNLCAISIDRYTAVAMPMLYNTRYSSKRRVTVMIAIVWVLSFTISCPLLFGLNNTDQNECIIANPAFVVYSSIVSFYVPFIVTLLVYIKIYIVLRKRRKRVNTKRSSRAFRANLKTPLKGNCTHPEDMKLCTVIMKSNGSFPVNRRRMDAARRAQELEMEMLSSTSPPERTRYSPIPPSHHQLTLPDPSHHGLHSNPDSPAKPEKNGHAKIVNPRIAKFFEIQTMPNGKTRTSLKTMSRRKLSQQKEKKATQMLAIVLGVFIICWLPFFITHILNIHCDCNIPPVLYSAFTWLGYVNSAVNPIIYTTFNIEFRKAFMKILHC

Row | Structure (SMILES) | IC50 [1] [µM] | IC50 [2] [nM] | IC50 [3] [nM] | IC50 [4] [µM]
1 | CCN1CCC[C@H]1CNC(=O)c1c(O)ccc(I)c1OC | > 10 | 196 | – | –
2 | CCN1CCC[C@H]1CNC(=O)c1c(OC)ccc(I)c1O [IOLOPRIDE] | > 10 | 1.71 | 1.2 | > 10
3 | CCN1CCC[C@H]1CNC(=O)c1c(O)c(Cl)cc(Cl)c1OC [RACLOPRIDE] | > 10 | – | – | –
